pEC50: −log10 of the molar value. Like-named read-outs stand apart in the source and are kept apart here. Positions of bridges follow the written chain, without caps; N, C: chain ends. Non-standard residues stand in square brackets, D forms with d. Residues, ends and D or L forms follow the SMILES beside them. dBip = N[C@H](Cc1ccc(-c2ccccc2)cc1)C(=O)O; dPhe(4-Br) = N[C@H](Cc1ccc(Br)cc1)C(=O)O; dPhe(4-I) = N[C@H](Cc1ccc(I)cc1)C(=O)O; d(αMeF) = C[C@@](N)(Cc1ccccc1)C(=O)O; Tic = O=C(O)[C@@H]1Cc2ccccc2CN1; dTic = O=C(O)[C@H]1Cc2ccccc2CN1; Cit = NC(=O)NCCC[C@H](N)C(=O)O; Nle = CCCC[C@H](N)C(=O)O; Aib = CC(C)(N)C(=O)O
Legend:
[1] = biological target: T1, human MC4R (Homo sapiens, UniProt P32245); experiment: split-luciferase cAMP sensor assay, agonist mode (measurement window 1), hMC4R; format: cell-based; details: for Emax / pEC50 / MC4R cAMP % max activation: agonist mode; for Emax: read-out: MC4R cAMP % max activation
T1 construct: host or cells: HEK-293 cells stably expressing the GScAMP22F split-luciferase cAMP sensor and hMC4R, G418 selection
In short: (§1)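 Live stable cell lines carrying receptor plus GloSensor cAMP22f split-luciferase, loaded with 4% D-luciferin in serum-free medium (~1% serum estimated during assay). Luminescence recorded during in-line peptide addition; direct agonist effect read in window 1, with 20 μM forskolin as normalization reference. EC50 from four-parameter sigmoid fit.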

[2] = biological target: T2, human MC3R (Homo sapiens, UniProt P41968); experiment: split-luciferase cAMP sensor assay, agonist mode (measurement window 1), hMC3R; format: cell-based; details: for Emax / MC3R cAMP % max activation / pEC50: agonist mode; for Emax: read-out: MC3R cAMP % max activation
T2 construct: expressed in transfected cells; host or cells: HEK-293 cells stably expressing the GScAMP22F split-luciferase cAMP sensor (parent reporter line from Promega); MC3R clone generated in-house, G418 selection
In short: as §1

[3] = hMC4R stable cell line, read-out: MC4R cAMP EC50
[4] = hMC3R stable cell line, read-out: MC3R cAMP EC50

T1 sequence (P32245 whole entry): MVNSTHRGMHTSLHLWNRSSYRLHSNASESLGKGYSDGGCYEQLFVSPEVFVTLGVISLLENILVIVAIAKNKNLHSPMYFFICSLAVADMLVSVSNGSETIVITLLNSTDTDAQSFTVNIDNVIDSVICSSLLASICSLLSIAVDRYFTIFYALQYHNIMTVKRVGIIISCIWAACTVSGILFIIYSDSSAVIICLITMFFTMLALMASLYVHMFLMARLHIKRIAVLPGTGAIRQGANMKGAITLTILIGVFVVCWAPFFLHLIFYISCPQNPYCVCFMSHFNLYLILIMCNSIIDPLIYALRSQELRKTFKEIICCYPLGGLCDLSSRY
T2 sequence (P41968 whole entry): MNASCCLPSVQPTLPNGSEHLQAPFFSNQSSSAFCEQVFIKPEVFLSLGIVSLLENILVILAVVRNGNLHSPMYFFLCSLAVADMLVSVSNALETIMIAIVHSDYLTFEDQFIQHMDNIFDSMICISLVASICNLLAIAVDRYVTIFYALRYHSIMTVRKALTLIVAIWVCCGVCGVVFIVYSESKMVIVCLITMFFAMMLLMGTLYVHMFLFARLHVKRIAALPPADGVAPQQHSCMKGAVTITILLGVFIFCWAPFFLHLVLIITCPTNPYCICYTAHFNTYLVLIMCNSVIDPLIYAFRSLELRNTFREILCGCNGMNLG

Compound	MC4R selectivity vs MC1R [1]	MC4R selectivity vs MC3R [1]	Emax ([1]; hMC4R stable cell line) [%]	Emax ([2]; hMC3R stable cell line) [%]	pEC50 [1, 3]	pEC50 [2, 4]	other results
CC(=O)N[C@@H](CCCNC(=N)N)C(=O)N[C@H]1CSSC[C@@H](C(N)=O)NC(=O)[C@@H]2Cc3ccccc3CN2C(=O)[C@H](CCCNC(=N)N)NC(=O)[C@@H](Cc2ccc(Br)cc2)NC(=O)[C@H](CCCNC(=N)N)NC(=O)[C@@H](C)NC1=O [CTX-1259, Arg-cyclo(Cys-D-Ala-Arg-D-Phe(4-Br)-Arg-Tic-Cys)] (Ac-RC[dA]R[dPhe(4-Br)]R[Tic]C-NH2; disulfide 2-8 (inferred))	0.01	0.12	70	27	–	–	–
CC(=O)N[C@@H](CCCNC(=N)N)C(=O)N[C@H]1CSSC[C@@H](C(N)=O)NC(=O)[C@@H](Cc2c[nH]c3ccccc23)NC(=O)[C@H](CCCNC(=N)N)NC(=O)[C@@H](Cc2c[nH]c3ccccc23)NC(=O)[C@H](CCCNC(=N)N)NC(=O)[C@@H](C)NC1=O [CTX-1275, Arg-cyclo(Cys-D-Ala-Arg-D-Trp-Arg-D-Trp-Cys)] (Ac-RC[dA]R[dW]R[dW]C-NH2; disulfide 2-8 (inferred))	0.22	0.27	24	–	6.04	6.61	MC3R cAMP % max activation ([2]; hMC3R stable cell line): (3.3%)
CC(=O)N[C@@H](CCCNC(=N)N)C(=O)N[C@H]1CSSC[C@@H](C(N)=O)NC(=O)[C@@H](Cc2c[nH]c3ccccc23)NC(=O)[C@@H](CCCNC(=N)N)NC(=O)[C@@H](Cc2ccccc2)NC(=O)[C@H](CCCNC(=N)N)NC(=O)[C@@H](C)NC1=O [CTX-1283, Arg-cyclo(Cys-D-Ala-Arg-D-Phe-D-Arg-D-Trp-Cys)] (Ac-RC[dA]R[dF][dR][dW]C-NH2; disulfide 2-8)	0.03	0.12	55	7.8	–	–	–
CC(=O)N[C@@H](CCCNC(=N)N)C(=O)N[C@H]1CSSC[C@@H](C(N)=O)NC(=O)[C@@H](Cc2c[nH]c3ccccc23)NC(=O)[C@H](CCCNC(=N)N)NC(=O)[C@@H](Cc2ccccc2)NC(=O)[C@H](Cc2c[nH]cn2)NC(=O)[C@@H](C)NC1=O [CTX-1262, Arg-cyclo(Cys-D-Ala-His-D-Phe-Arg-D-Trp-Cys)]	–	–	–	–	–	–	Emax ([1]; % maximal activation): 88%; Emax ([2]; % maximal activation): 65%
CCCC[C@H](NC(=O)[C@H](CCCNC(=N)N)NC(C)=O)C(=O)N[C@H]1CSSC[C@@H](C(N)=O)NC(=O)[C@@H](Cc2c[nH]c3ccccc23)NC(=O)[C@H](CCCNC(=N)N)NC(=O)[C@@H](Cc2ccc(I)cc2)NC(=O)[C@H](Cc2c[nH]cn2)NC1=O [CTX-1233, Arg-Nle-cyclo(Cys-His-D-Phe(4-I)-Arg-D-Trp-Cys)] (Ac-R[Nle]CH[dPhe(4-I)]R[dW]C-NH2; disulfide 3-8 (inferred))	0.26	1.88	16	22	8.66	8.39	–
CC(=O)N[C@@H](CCCNC(=N)N)C(=O)N[C@H]1CSSC[C@@H](C(N)=O)NC(=O)[C@H]2Cc3ccccc3CN2C(=O)[C@H](CCCNC(=N)N)NC(=O)[C@@H](Cc2ccc(Br)cc2)NC(=O)[C@H](CCCNC(=N)N)NC(=O)[C@@H](C)NC1=O [CTX-1256, Arg-cyclo(Cys-D-Ala-Arg-D-Phe(4-Br)-Arg-D-Tic-Cys)] (Ac-RC[dA]R[dPhe(4-Br)]R[dTic]C-NH2; disulfide 2-8 (inferred))	0.003	0.08	29	17	–	–	–
CC(=O)N[C@@H](CCCNC(=N)N)C(=O)N[C@H]1CSSC[C@@H](C(N)=O)NC(=O)[C@@H](Cc2c[nH]c3ccccc23)NC(=O)[C@H](CCCNC(N)=O)NC(=O)[C@@H](Cc2ccccc2)NC(=O)[C@H](CCCNC(=N)N)NC(=O)C(C)(C)NC1=O [CTX-1271, Arg-cyclo(Cys-Aib-Arg-D-Phe-Cit-D-Trp-Cys)] (Ac-RC[Aib]R[dF][Cit][dW]C-NH2; disulfide 2-8 (inferred))	2.9	1.63	95	16	7.14	–	–
CCCC[C@H](NC(=O)[C@H](CCCNC(=N)N)NC(C)=O)C(=O)N[C@H]1CSSC[C@@H](C(N)=O)NC(=O)[C@@H](Cc2c[nH]c3ccccc23)NC(=O)[C@H](CCCNC(=N)N)NC(=O)[C@@H](Cc2ccc(Br)cc2)NC(=O)[C@H](CCCNC(=N)N)NC1=O [CTX-1232, Arg-Nle-cyclo(Cys-Arg-D-Phe(4-Br)-Arg-D-Trp-Cys)] (Ac-R[Nle]CR[dPhe(4-Br)]R[dW]C-NH2; disulfide 3-8 (inferred))	0.39	2.44	–	–	8.62	–	MC4R cAMP % max activation ([1]; hMC4R stable cell line): (46%); MC3R cAMP % max activation ([2]; hMC3R stable cell line): (41%)
CC(=O)N[C@@H](CCCNC(=N)N)C(=O)N[C@H]1CSSC[C@@H](C(=O)N[C@@H](CCCCN)C(=O)N2CCC[C@H]2C(N)=O)NC(=O)[C@@H](Cc2c[nH]c3ccccc23)NC(=O)[C@H](CCCNC(=N)N)NC(=O)[C@@H](Cc2ccc(Br)cc2)NC(=O)[C@H](CCCNC(=N)N)NC(=O)[C@@H](C)NC1=O [CTX-1217, Arg-cyclo(Cys-D-Ala-Arg-D-Phe(4-Br)-Arg-D-Trp-Cys)-Lys-Pro] (Ac-RC[dA]R[dPhe(4-Br)]R[dW]CKP-NH2; disulfide 2-8)	1.12	2.73	69	13	–	8.40	–
CC(=O)N[C@@H](CCCNC(=N)N)C(=O)N[C@H]1CSSC[C@@H](C(N)=O)NC(=O)[C@H](Cc2c[nH]c3ccccc23)NC(=O)[C@H](CCCNC(=N)N)NC(=O)[C@@H](Cc2ccc(Br)cc2)NC(=O)[C@@H]2CCCN2C(=O)[C@@H](C)NC1=O [CTX-2204, Arg-cyclo(Cys-D-Ala-Pro-D-Phe(4-Br)-Arg-Trp-Cys)] (Ac-RC[dA]P[dPhe(4-Br)]RWC-NH2; disulfide 2-8 (inferred))	–	0.19	13	0.2	–	7.96	–
CCCC[C@H](NC(=O)[C@H](CCCNC(=N)N)NC(C)=O)C(=O)N[C@H]1CSSC[C@@H](C(N)=O)NC(=O)[C@H](Cc2c[nH]c3ccccc23)NC(=O)[C@H](CCCNC(=N)N)NC(=O)[C@@H](Cc2ccc(Br)cc2)NC(=O)[C@H](CCCNC(=N)N)NC1=O [CTX-1230, Arg-Nle-cyclo(Cys-Arg-D-Phe(4-Br)-Arg-Trp-Cys)] (Ac-R[Nle]CR[dPhe(4-Br)]RWC-NH2; disulfide 3-8)	0.18	1.95	–	–	8.85	8.41	MC4R cAMP % max activation ([1]; hMC4R stable cell line): (27%); MC3R cAMP % max activation ([2]; hMC3R stable cell line): (23%)
CC(=O)N[C@@H](CCCNC(=N)N)C(=O)N[C@H]1CSSC[C@@H](C(N)=O)NC(=O)[C@@H](Cc2c[nH]c3ccccc23)NC(=O)[C@H](CCCNC(=N)N)NC(=O)[C@@H](Cc2ccc(-c3ccccc3)cc2)NC(=O)[C@H](CCCNC(=N)N)NC(=O)[C@@H](C)NC1=O [CTX-1243, Arg-cyclo(Cys-D-Ala-Arg-D-Bip-Arg-D-Trp-Cys)] (Ac-RC[dA]R[dBip]R[dW]C-NH2; disulfide 2-8 (inferred))	0.21	0.38	32	7.7	–	–	–
CC(=O)N[C@@H](CCCNC(=N)N)C(=O)N[C@H]1CSSC[C@@H](C(N)=O)NC(=O)[C@@H](Cc2c[nH]c3ccccc23)NC(=O)[C@H](CCCNC(=N)N)NC(=O)[C@@](C)(Cc2ccccc2)NC(=O)[C@H](CCCNC(=N)N)NC(=O)[C@@H](C)NC1=O [CTX-1279, Arg-cyclo(Cys-D-Ala-Arg-a-Me-D-Phe-Arg-D-Trp-Cys)] (Ac-RC[dA]R[d(αMeF)]R[dW]C-NH2; disulfide 2-8)	0.83	0.61	79	20	7.14	–	–
CC(=O)N[C@@H](CCCNC(=N)N)C(=O)N[C@H]1CSSC[C@@H](C(N)=O)NC(=O)[C@@H](C)NC(=O)[C@H](CCCNC(=N)N)NC(=O)[C@@H](Cc2ccc(Br)cc2)NC(=O)[C@H](CCCNC(=N)N)NC(=O)[C@@H](C)NC1=O [CTX-1260, Arg-cyclo(Cys-D-Ala-Arg-D-Phe(4-Br)-Arg-D-Ala-Cys)] (Ac-RC[dA]R[dPhe(4-Br)]R[dA]C-NH2; disulfide 2-8)	0.01	0.05	38	13	–	–	–
CC(=O)N[C@@H](CCCNC(=N)N)C(=O)N[C@H]1CSSC[C@@H](C(=O)N[C@@H](CCCCN)C(N)=O)NC(=O)[C@@H](Cc2c[nH]c3ccccc23)NC(=O)[C@H](CCCNC(=N)N)NC(=O)[C@@H](Cc2ccc(Br)cc2)NC(=O)[C@H](CCCNC(=N)N)NC(=O)[C@@H](C)NC1=O [CTX-1218, Arg-cyclo(Cys-D-Ala-Arg-D-Phe(4-Br)-Arg-D-Trp-Cys)-Lys] (Ac-RC[dA]R[dPhe(4-Br)]R[dW]CK-NH2; disulfide 2-8)	1	1.85	77	16	–	–	pEC50 ([1]; hMC4R stable cell line, unit inferred, read-out: MC4R cAMP EC50): 8.66; pEC50 ([2]; hMC3R stable cell line, unit inferred, read-out: MC3R cAMP EC50): 8.40
CC(=O)N[C@H]1CSSC[C@@H](C(N)=O)NC(=O)[C@H](Cc2c[nH]c3ccccc23)NC(=O)[C@H](CCCNC(=N)N)NC(=O)[C@@H](Cc2ccccc2)NC(=O)[C@H](Cc2c[nH]cn2)NC(=O)[C@@H](C)NC1=O [CTX-1207, cyclo(Cys-D-Ala-His-D-Phe-Arg-Trp-Cys)]	–	–	–	–	–	–	Emax ([1]; % maximal activation): 96%; pEC50 ([1]; MC4R cAMP EC50, HEK-293 cells stably expressing hMC4R): 9.04; Emax ([2]; % maximal activation): 89%; pEC50 ([2]; MC3R cAMP EC50, HEK-293 cells stably expressing hMC3R): 8.09; MC4R selectivity vs MC3R ([2]; MC4R versus MC3R): 8.87

Reference: patent US20240391954A1, “MC4R AGONIST PEPTIDES” (The Regents of the University of Michigan, priority 2021, published 2024)
